Structures can show the parent of a compound that is named as a salt.
These molecules were tested against XIAP BIR3 domain (Homo sapiens (Human), UniProt P98170) (assay: XIAP in vitro competitive displacement binding assay (fluorescence polarization)). Conditions: given as ranges; a range also covers PI >= approx 50% at <= the upper concentration; read-out: IC50 or PI Xiap.

Row | IC50 [nM] | Compound
1 | 100000 to 300000 | CN[C@@H](C)C(=O)Nc1ccc2[nH]c(=O)n(Cc3ccccc3)c2n1 (stereo in doubt) [Example 43, N-(3-Benzyl-2-oxo-2,3-dihydro-1H-imidazo[4,5-b]pyridin-5-yl)-2-methylamino-propionamide hydrochloride]

The molecules below were run against cIAP-1 BIR3 domain (Homo sapiens (Human), UniProt Q13490) (assay: cIAP-1 in vitro competitive displacement binding assay (fluorescence polarization)). Conditions: AVPIK(5&6FAM)-amide probe (Probe A); given as ranges; read-out: IC50 or PI cIAP1.

Row | IC50 [nM] | Compound
2 | 10000 to 100000 | CN[C@@H](C)C(=O)Nc1ccc2[nH]c(=O)n(Cc3ccccc3)c2n1 (stereo in doubt) [Example 43, N-(3-Benzyl-2-oxo-2,3-dihydro-1H-imidazo[4,5-b]pyridin-5-yl)-2-methylamino-propionamide hydrochloride]
4 | 10000 to 100000 | CN[C@@H](C)C(=O)Nc1ccc2c(n1)n(C)c(=O)n2C [Example 17, (S)—N-(1,3-Dimethyl-2-oxo-2,3-dihydro-1H-imidazo[4,5-b]pyridin-5-yl)-2-methylamino-propionamide hydrochloride]
5 | 10 to 1000 | CN[C@@H](C)C(=O)Nc1ccc2c(n1)CNC(=O)N2c1ccccc1 [Example 19, (S)-2-Methylamino-N-(2-oxo-1-phenyl-1,2,3,4-tetrahydro-pyrido[3,2-d]pyrimidin-6-yl)-propionamide hydrochloride]

Same assay, conditions: AbuRPFK(5&6FAM)-amide probe (Probe B); given as ranges; read-out: IC50 or PI cIAP1

Row | IC50 [nM] | Compound
10 | 10 to 1000 | CN[C@@H](C)C(=O)Nc1ccc2c(n1)CNC(=O)N2c1ccc(Cl)cc1 [Example 22, (S)—N-[1-(4-Chloro-phenyl)-2-oxo-1,2,3,4-tetrahydro-pyrido[3,2-d]pyrimidin-6-yl]-2-methylamino-propionamide hydrochloride]
14 | 10 to 1000 | CCCN1Cc2nc(NC(=O)[C@H](C)NC)ccc2N(c2ccccc2)C1=O [Example 28, (S)-2-Methylamino-N-(2-oxo-1-phenyl-3-propyl-1,2,3,4-tetrahydro-pyrido[3,2-d]pyrimidin-6-yl)-propionamide hydrochloride]
22 | 10 to 1000 | CN[C@@H](C)C(=O)Nc1ccc2c(n1)CN(CCc1ccccc1)C(=O)N2c1ccc(Cl)cc1 [Example 41, (S)—N-[1-(4-Chloro-phenyl)-2-oxo-3-phenethyl-1,2,3,4-tetrahydro-pyrido[3,2-d]pyrimidin-6-yl]-2-methylamino-propionamide hydrochloride]

Same assay, conditions: read-out: IC50 or PI cIAP1

Row | Compound | IC50 [nM]
23 | CN[C@@H](C)C(=O)Nc1ccc2c(n1)CN(Cc1cscn1)C(=O)N2c1ccc(Cl)cc1 [Example 40, (S)—N-[1-(4-Chloro-phenyl)-2-oxo-3-thiazol-4-ylmethyl-1,2,3,4-tetrahydro-pyrido[3,2-d]pyrimidin-6-yl]-2-methylamino-propionamide hydrochloride] | 10 to 1000
